Results published in PubChem BioAssay (NCI).
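Assay format: 96-well plates, 48-hour exposure. At the TGI there is no net growth.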

Key:
Assay in all cases: NCI-60 cell line screen, 48 h
786-0 renal = test system: 786-0 renal
A498 renal = test system: A498 renal
ACHN renal = test system: ACHN renal
CAKI-1 renal = test system: CAKI-1 renal
CCRF-CEM leukemia = test system: CCRF-CEM leukemia
COLO 205 colon = test system: COLO 205 colon
DLD-1 colon = test system: DLD-1 colon
DMS 114 small cell lung = test system: DMS 114 small cell lung
DMS 273 small cell lung = test system: DMS 273 small cell lung
HCC-2998 colon = test system: HCC-2998 colon
HCT-116 colon = test system: HCT-116 colon
HL-60(TB) leukemia = test system: HL-60(TB) leukemia
HOP-62 NSCLC = test system: HOP-62 NSCLC
HOP-92 NSCLC = test system: HOP-92 NSCLC
IGROV1 ovarian = test system: IGROV1 ovarian
K-562 leukemia = test system: K-562 leukemia
LXFL 529 NSCLC = test system: LXFL 529 NSCLC
M14 melanoma = test system: M14 melanoma
M19-MEL melanoma = test system: M19-MEL melanoma
MALME-3M melanoma = test system: MALME-3M melanoma
MOLT-4 leukemia = test system: MOLT-4 leukemia
NCI-H226 lung = test system: NCI-H226 lung
NCI-H23 lung = test system: NCI-H23 lung
NCI-H460 lung = test system: NCI-H460 lung
NCI-H522 lung = test system: NCI-H522 lung
OVCAR-4 ovarian = test system: OVCAR-4 ovarian
RPMI-8226 leukemia = test system: RPMI-8226 leukemia
RXF-631 renal = test system: RXF-631 renal
SF-268 CNS = test system: SF-268 CNS
SK-MEL-2 melanoma = test system: SK-MEL-2 melanoma
SK-MEL-28 melanoma = test system: SK-MEL-28 melanoma
SK-OV-3 ovarian = test system: SK-OV-3 ovarian
SNB-75 CNS = test system: SNB-75 CNS
SNB-78 CNS = test system: SNB-78 CNS
SR leukemia = test system: SR leukemia
UACC-62 melanoma = test system: UACC-62 melanoma
UO-31 renal = test system: UO-31 renal
A549 NSCLC = test system: A549 NSCLC
EKVX NSCLC = test system: EKVX NSCLC
HCT-15 colon = test system: HCT-15 colon
HOP-18 NSCLC = test system: HOP-18 NSCLC
HT29 colon = test system: HT29 colon
KM12 colon = test system: KM12 colon
KM20L2 colon = test system: KM20L2 colon
LOX IMVI melanoma = test system: LOX IMVI melanoma
OVCAR-5 ovarian = test system: OVCAR-5 ovarian
OVCAR-8 ovarian = test system: OVCAR-8 ovarian
RXF 393 renal = test system: RXF 393 renal
SF-295 CNS = test system: SF-295 CNS
SF-539 CNS = test system: SF-539 CNS
SN12C renal = test system: SN12C renal
SNB-19 CNS = test system: SNB-19 CNS
SW-620 colon = test system: SW-620 colon
TK-10 renal = test system: TK-10 renal
U251 CNS = test system: U251 CNS
UACC-257 melanoma = test system: UACC-257 melanoma
XF 498 CNS = test system: XF 498 CNS

COc1cc([C@H]2Oc3cc(O)c4c(=O)cc(-c5ccc(O)cc5)oc4c3O[C@@H]2CO)ccc1O
TGI (786-0 renal): 29.3 µM
TGI (A498 renal): 35.2 µM
TGI (ACHN renal): 63.4 µM
TGI (CAKI-1 renal): 44.9 µM
TGI (CCRF-CEM leukemia): 44.3 µM
TGI (COLO 205 colon): 31.7 µM
TGI (DLD-1 colon): 32.3 µM
TGI (DMS 114 small cell lung): 40 µM
TGI (DMS 273 small cell lung): 31.8 µM
TGI (HCC-2998 colon): 28.5 µM
TGI (HCT-116 colon): 26.4 µM
TGI (HL-60(TB) leukemia): 53 µM
TGI (HOP-62 NSCLC): 33.5 µM
TGI (HOP-92 NSCLC): 60.7 µM
TGI (IGROV1 ovarian): 59.3 µM
TGI (K-562 leukemia): 83.5 µM
TGI (LXFL 529 NSCLC): 29.2 µM
TGI (M14 melanoma): 34 µM
TGI (M19-MEL melanoma): 36.8 µM
TGI (MALME-3M melanoma): 33.3 µM
TGI (MOLT-4 leukemia): 53.9 µM
TGI (NCI-H226 lung): 39 µM
TGI (NCI-H23 lung): 31.1 µM
TGI (NCI-H460 lung): 17.8 µM
TGI (NCI-H522 lung): 18.6 µM
TGI (OVCAR-4 ovarian): 63.2 µM
TGI (RPMI-8226 leukemia): 46 µM
TGI (RXF-631 renal): 24.1 µM
TGI (SF-268 CNS): 5.79 µM
TGI (SK-MEL-2 melanoma): 30.7 µM
TGI (SK-MEL-28 melanoma): 28 µM
TGI (SK-OV-3 ovarian): 36.6 µM
TGI (SNB-75 CNS): 18.5 µM
TGI (SNB-78 CNS): 98.1 µM
TGI (SR leukemia): 47.8 µM
TGI (UACC-62 melanoma): 34.2 µM
TGI (UO-31 renal): 54.2 µM

CC1C2=CC=C(O2)C(C)(C)C2=CC=C(O2)C(C)(C)C2=CC=C(O2)C(C)(C)C2=CC=C1O2
TGI (786-0 renal): > 100 µM
TGI (A498 renal): > 100 µM
TGI (A549 NSCLC): > 100 µM
TGI (ACHN renal): > 100 µM
TGI (CAKI-1 renal): > 100 µM
TGI (CCRF-CEM leukemia): > 100 µM
TGI (COLO 205 colon): > 100 µM
TGI (DMS 273 small cell lung): > 100 µM
TGI (EKVX NSCLC): > 100 µM
TGI (HCC-2998 colon): > 100 µM
TGI (HCT-116 colon): > 100 µM
TGI (HCT-15 colon): > 100 µM
TGI (HL-60(TB) leukemia): > 100 µM
TGI (HOP-18 NSCLC): > 100 µM
TGI (HOP-62 NSCLC): > 100 µM
TGI (HOP-92 NSCLC): > 100 µM
TGI (HT29 colon): > 100 µM
TGI (IGROV1 ovarian): > 100 µM
TGI (K-562 leukemia): > 100 µM
TGI (KM12 colon): > 100 µM
TGI (KM20L2 colon): > 100 µM
TGI (LOX IMVI melanoma): > 100 µM
TGI (LXFL 529 NSCLC): > 100 µM
TGI (M19-MEL melanoma): > 100 µM
TGI (MALME-3M melanoma): > 100 µM
TGI (MOLT-4 leukemia): > 100 µM
TGI (NCI-H226 lung): > 100 µM
TGI (NCI-H23 lung): > 100 µM
TGI (NCI-H460 lung): > 100 µM
TGI (NCI-H522 lung): > 100 µM
TGI (OVCAR-4 ovarian): > 100 µM
TGI (OVCAR-5 ovarian): > 100 µM
TGI (OVCAR-8 ovarian): > 100 µM
TGI (RXF 393 renal): > 100 µM
TGI (SF-268 CNS): > 100 µM
TGI (SF-295 CNS): > 100 µM
TGI (SF-539 CNS): > 100 µM
TGI (SK-MEL-2 melanoma): > 100 µM
TGI (SK-MEL-28 melanoma): > 100 µM
TGI (SK-OV-3 ovarian): > 100 µM
TGI (SN12C renal): > 100 µM
TGI (SNB-19 CNS): > 100 µM
TGI (SNB-78 CNS): > 100 µM
TGI (SR leukemia): > 100 µM
TGI (SW-620 colon): > 100 µM
TGI (TK-10 renal): > 100 µM
TGI (U251 CNS): > 100 µM
TGI (UACC-257 melanoma): > 100 µM
TGI (XF 498 CNS): > 100 µM
